Experimental data from article PMC9879403, “Oncolytic strategy using new bifunctional HDACs/BRD4 inhibitors against virus-associated lymphomas” (PLOS Pathogens, 2023).
Where two headings read alike, the source gives them in different places.

How the values were obtained:
BCP-1 = assay: WST-1 cytotoxicity assay, BCP-1 (KSHV+ PEL); type: cell-based; settings: BCP-1, 72 h
From the text: (§1) Fig 2 Identification of newly synthesized dual inhibitors with anti-PEL activities. (A) The binding mode of (+)-JQ1 with BRD4^BD1 (PDB: 3MXF). BRD4^BD1 is shown as hot pink cartoon with gray surface. Asn140 in BRD4^BD1 is shown as sticks and colored in following pattern: atom C hot pink, atom N dark blue, and atom O yellow. (+)-JQ1 is shown as sticks and colored in following patten: atom C hot pink, atom N dark blue, atom O yellow, atom S golden, and atom Cl green. The solvent exposed region (SEG) of (+)-JQ1 are indicated with white arrow. (B) The binding modes of SAHA and entinostat with HDAC2 (PDB: 3MAX). HDAC2 is shown as blue cartoon with gray surface. Asp181 and His183 in HDAC2 are shown as sticks and colored in following pattern: atom C blue, atom N dark blue, and atom O yellow. The catalytic zinc ion in the active site of HDAC2 is shown as black sphere. SAHA is shown as sticks and colored in following pattern: atom C green, atom N dark blue, and atom O yellow. Entinostat is shown as sticks and colored in following pattern: atom C hot pink, atom N dark blue, and atom O yellow. The SEG of SAHA or entinostat is indicated with white arrow. Hydrogen bonds (H-bonds) are presented by red dash lines. (C) The HDACs/BRD4 dual inhibitors 002-011 were designed by fusing the key pharmacophores of (+)-JQ1 (pink) and HDAC inhibitors (blue), SAHA or entinostat, via various chemical linkers (green). (D) Anti-PEL activities of the new compounds. Five KSHV positive and two KSHV negative lymphoma cell lines were treated with indicated concentrations of these compounds for 72 h. Then the cytotoxicity was determined using the WST-1 assay. (+)-JQ1, SAHA and entinostat were used for the comparisons as single inhibitors. The CC50 for each compound was calculated using GraphPad Prism 5.0 software. Error bars represent S.D. for 3 independent experiments.
Fig 4 Identification of anti-PEL activities for compound 009 stereoisomers. (A) The chemical structures of anti-HDACs/BRD4 bifunctional molecules 009P1 and 009P2, as well as anti-HDACs or anti-BRD4 mono-functional molecules 009N1, 009N2, 009N3, and 009N4. (B-C) Four KSHV+ PEL cell lines were treated with indicated concentrations of 009P1, 009P2 or 009N1-N4 for 72 h, then the cytotoxicity was determined using the WST-1 assay. (D-I) BCBL-1 cells were treated with these compounds at the respective 2× CC50 for 24 h, then cell cycle (D-F) and apoptosis (G-I) were measured by flow cytometry analysis. Error bars represent S.D. for 3 independent experiments, ** = p<0.01 (vs vehicle control).
(§2) The cell viability following treatment with compounds was assessed by the WST-1 assay (Roche, Indianapolis, Indiana, USA) according to the manufacturer’s protocol as described previously. The absorbance signal was measured using a microplate reader (Biotek Synergy 2). The 50% cytotoxic concentration (CC50) for each compound was calculated from these dose-response curves using the software GraphPad Prism v5.0. Data were normalized as the fold change compared to the DMSO control.

BCBL-1 cells = assay: PEL xenograft model (BCBL-1 cells i.p.)
Procedure: (A) Plasma concentrations of (+)-JQ1, SAHA, or 009P1 after a single administration of 50 mg per kg body (i.p. injection) were presented as mean ± SD (n = 3 mice per time point). (B-E) NOD/SCID mice were injected i.p. with BCBL-1 cells. 72 h later, the compounds or vehicle were administered i.p. as described in the Methods, and weights were recorded weekly. At the end of the treatment period, the splenic tissues were collected from the vehicle or compound treated mice, compared and processed with the H&E and IHC staining. (F) Plasma concentrations of 009P1 after a single administration of 50 mg per kg body (oral gavage) were presented as mean ± SD (n = 3 mice per time point). (G-I) NOD/SCID mice were injected i.p. with BCBL-1 cells. 72 h later, the compounds or vehicle were administered orally as described in the Methods, and weights were recorded weekly.
In all NOD/SCID mice, 6–8-week-old, male (Jackson Laboratory, Ellsworth, Maine, USA), 1 × 10^7 BCBL-1 cells in 200 μL RMPI-1640 without FBS were injected intraperitoneally and then mice were randomized into treatment groups of 6 mice as described previously. The tested compounds or vehicle was administered initially at 72 h after BCBL-1 injections, and continued once daily, 2 days per week for 3 weeks. Weights were recorded weekly as a surrogate measure of tumor progression. At the end of experiment, the spleens of mice were excised for immunoblots and immunohistochemical analyses.
Formalin-fixed, paraffin-embedded tissues were microtome-sectioned to a thickness of 4 μm and placed on electromagnetically charged slides. Immunohistochemistry was performed as described previously, and the c-Myc and H3K9Ac antibodies were purchased from Abcam. Images were collected using an Olympus BX61 microscope equipped with a high resolution DP72 camera and CellSense image capture software.

HDACs = HDACs signaling by Western blot (H3K9Ac, H4K9Ac, Acetyl-tubulin); type: cell-based
KSHV [1] = type: cell-based
KSHV [2] = assay: Viral DNA levels in PEL cells by qPCR; type: cell-based
[3] = WST-1 cytotoxicity assay, BL-41 (KSHV negative lymphoma); type: cell-based; settings: human; 50% cytotoxic concentration, 72 h, WST-1; read-out: KSHV negative lymphomas CC50, BL-41
From the text: as §1, §2

[4] = WST-1 cytotoxicity assay, BJAB (KSHV negative lymphoma); type: cell-based; settings: human; 50% cytotoxic concentration, 72 h, WST-1; read-out: KSHV negative lymphomas CC50, BJAB
From the text: as §1, §2

BJAB.219 = assay: WST-1 cytotoxicity assay, BJAB.219 (KSHV-infected lymphoma); type: cell-based; settings: 72 h, read-out: KSHV-infected lymphomas CC50, BJAB.219
From the text: as §1
BCBL-1 and iSLK.219 cells were kindly provided by Dr. Pinghui Feng (University of Southern California). BL-41, BJAB, BCP-1, BC-1, BC-3, JSC-1, HUVEC cells were purchased from American Type Culture Collection (ATCC), and cultured as recommended by the manufacturer. For making BJAB.219 cells, BJAB cells were infected with rKSHV.219 stock by spinoculation as previously reported by centrifugation at 1500×g for 60 min [31]. Then, puromycin (10 μg/ml) was added into the medium at 72 h post-infection and the medium containing puromycin was replaced twice a week. After 6-week high concentration of puromycin selection, BJAB.219 cells were then cultured in the medium with 0.5 μg/ml puromycin.
The cell viability following treatment with compounds was assessed by the WST-1 assay (Roche, Indianapolis, Indiana, USA) according to the manufacturer’s protocol as described previously. The absorbance signal was measured using a microplate reader (Biotek Synergy 2). […]

[5] = Toxicity study, oral administration at 100 mg/kg
[6] = read-out: KSHV-infected lymphomas CC50, BCP-1

Compound | CC50 (BCP-1; read-out: CC50, BCP-1) | PEL tumor progression (ascites formation, spleen enlargement) (BCBL-1 cells; i.p., 20 mg/kg) | Tumor infiltration into the spleen (H&E) (BCBL-1 cells; i.p., 20 mg/kg) | Visible toxicity in mice (abnormal weight loss) (BCBL-1 cells; i.p., 20 mg/kg) | Tumor burden in mice (ascites formation, spleen enlargement) (BCBL-1 cells; oral administration, 20 mg/kg) | H3K9Ac, H4K9Ac and Acetyl-tubulin protein levels (HDACs; BCBL-1 cells, 48 h, Western blot) | Expression of viral genes (LANA, RTA, ORF26) (KSHV [1]) | Viral DNA levels (KSHV [2]) | CC50 at 72 h [3] | CC50 at 72 h [4] | CC50 (BJAB.219) | CC50 (BCP-1; [6]) | Tumor infiltration into the spleen (H&E) (BCBL-1 cells; i.p., 50 mg/kg) | Visible toxicity in mice (abnormal weight loss) (BCBL-1 cells; i.p., 50 mg/kg) | Toxicity in the mice [5] | CC50 (BJAB.219; 50% cytotoxic concentration, WST-1) | H3K9Ac, H4K9Ac and Acetyl-tubulin protein levels (HDACs)
Cc1sc2c(c1C)C(c1ccc(Cl)cc1)=N[C@@H](CC(=O)O[C@H](C)c1ccc(C(=O)Nc3ccccc3N)cc1)c1nnc(C)n1-2 [009P1, (R)-1-(4-((2-aminophenyl)carbamoyl)phenyl)ethyl 2-((S)-4-(4-chlorophenyl)-2,3,9-trimethyl-6H-thieno[3,2-f][1,2,4]triazolo[4,3-a][1,4]diazepin-6-yl)acetate] | 0.12 µM | dramatically suppressed PEL tumor progression | only diffuse small tumor nodules | not observed | effectively repressed tumor burden | increased | significantly increased | slightly increased | – | – | – | – | – | – | – | – | –
Cc1sc2c(c1C)C(c1ccc(Cl)cc1)=N[C@@H](CC(=O)OC(C)(C)C)c1nnc(C)n1-2 [(+)-JQ1, reference compound] | – | – | – | – | – | – | – | – | 0.68 µM | 1.11 µM | ~0.12 µM | 0.059 µM | slightly reduced | visible toxicity | severe toxicity | – | –
O=C(CCCCCCC(=O)Nc1ccccc1)NO [SAHA, suberoylanilide hydroxamic acid, reference compound] | – | – | – | – | – | – | – | obviously increased | 3.94 µM | 3.34 µM | – | 1.42 µM | – | – | – | 0.56 µM | upregulated
